Each block holds one molecule with its values, some of them ahead of it.
Assays:
U87 glioma cells = assay: Quantitative proteomics (iTRAQ 4plex), U87; format: cell-based, human
Method: (§1) FIGS. 14A and 14B are tables showing quantitative proteomic analysis of proteome changes 48 hours after J1 (65 μM, NCI) treatment on U87 (FIG. 14A) and U118 (FIG. 14B) glioma cells. To further explore the molecular mechanism of J1's cytotoxic effects on glioma cells, a quantitative proteomics analysis (iTRAQ 4plex) was conducted after J1 treatment. There were four groups: untreated U87 and U118 glioma cells and J1 treated U87 and U118 glioma cells at 48 hours. Each group was in triplicate. […] HSPA5 activation is a marker for Unfolded Protein Response (UPR), a pathway that can contribute to cell death or cell survival.

T98G glioma cells = assay: Cell viability assay (trypan blue exclusion), T98G; format: cell-based, human; details: mutant-type p53-expressing T98G cells after J1 treatment
Method: (§2) T98G, U87MG, U118MG, A172, LN18, DBTRG-05MG, LN229, M059J, WT4 human glioma cell lines were purchased from American Type Culture Collection (Rockville, Md.). Cell culture was conducted according to the ATCC's recommendations, available at www.atcc.org. Normal human astrocytes (NHA) were purchased from Lonza Bioscience (Switzerland). Cell cultures were grown according to the vendor's recommendations for each cell line. GL261 mouse glioma cell line was obtained from NCI (Frederick, Md.) and was grown in RPMI (Gibco BRL, Grand Island, N.Y.) containing 10% FBS, 1% Penicillin-Streptomycin, and 4 mM L-glutamine at 37° C. with 5% CO2.
(§3) J1 and its derivatives were provided by NCI developmental therapeutic program repository or purchased from Sigma-Aldrich Inc. Temozolomide (TMZ) was obtained from Schering-Plough (Kenilworth, N.J.). Both J1 and TMZ were dissolved in DMSO and stock solution of 100 mM were made.
(§4) JAZ siRNA and control siRNA were purchased from Invitrogen. […]
(§5) Cell viability was measured by first seeding tumor cells in 24-well dishes at a density of 10,000 cells per well. […] Forty-eight hours after transduction, cells were collected by trypsinization followed by the trypan blue exclusion method (Yang et al., J Biol Chem 1999; 274:27399-406) and counted manually using a hemacytometer. […]

U118 glioma cells = assay: Quantitative proteomics (iTRAQ 4plex), U118; format: cell-based, human
Method: as §1

colon cancer cells = assay: Cytotoxicity to colon cancer cells (FIG. 13); format: cell-based
U87MG glioma cells [1] = assay: DNA laddering in glioma cells; format: cell-based, human; details: J1 25 μM
[2] = tested on: primary cultured hepatocytes; assay: Cytotoxicity on primary cultured hepatocytes; format: cell-based; details: 24 hours after drug treatment
[3] = tested on: ATF-4 protein levels in U118MG cell line; assay: Western blot of ATF-4, U118MG; format: cell-based, human; details: U118MG, 24, 48, and 72 hours after J1 (10 and 25 μM)
Method: (§6) Whole cell protein extracts were prepared using cold lysis buffer consisting of: M-Per mammalian protein extraction reagent (Pierce Biochemical, Rockford, Ill.), 30 mM sodium fluoride, 1 mM sodium vanadate, and protease inhibitor cocktail tablets (Boehringer Mannheim). Samples were incubated on ice for 10 minutes and supernatants were recovered by centrifuging at 14,000 rpm at 4° C. for 20 minutes. Protein concentrations were determined by the BCA method (Pierce Biochemical). Proteins were separated on SDS-PAGE and transferred to nitrocellulose membrane (Osmonics, Minnetonka, Minn.). Blocking reagent is 5% nonfat dry milk in PBS (pH 7.4). Washing buffer is PBS (pH 7.4) with 0.1% Tween 20. Primary antibodies (p53, ATM, CHK1, CHK2) are commercially available. JAZ primary antibodies are described in Yang et al., Blood 108:4136-4145, 2006. The respective HRP-conjugated secondary antibodies were purchased from Boehringer Mannheim. Signals are visualized by using ECL chemiluminescence (Amersham, Indianapolis, Ind.) or Supersignal chemiluminescence (Pierce Biochemical) and Kodak X-OMAT films. Data acquired as integrated densitometric values are transformed to percentages of the values obtained from control samples visualized on the same blot.

[4] = tested on: ATF-4 and CHOP in U87 cells; assay: Immunofluorescence of ATF-4 and CHOP, U87; format: cell-based, human
WT4 glioma cells = assay: Cell viability assay (trypan blue exclusion), WT4; format: cell-based, human; details: p53-expressing and p53-non-expressing WT4 cells, J1 25 μM
Method: as §2, §3, §4, §5

leukemia cells = assay: Cytotoxicity to leukemia cells (FIG. 13); format: cell-based
HepG2 cells = assay: Cytotoxicity on HepG2; format: cell-based, Human; details: dose and time-dependent
glioma cell viability = assay: GI50 comparison of J1 with FDA approved chemotherapy drugs (FIG. 12); format: cell-based; details: read-out: GI50 (concentration of drug that causes 50% growth inhibition)
[5] = tested on: DU145 prostate carcinoma cells; assay: Cytotoxicity on DU145; format: cell-based
lung cancer cells = assay: Cytotoxicity to lung cancer cells (FIG. 13); format: cell-based
[6] = tested on: LNCAP prostate carcinoma cells; assay: Cytotoxicity on LNCAP; format: cell-based
[7] = tested on: ATF-4 protein levels in U87 glioma cells; assay: Western blot of ATF-4, U87; format: cell-based, human; details: U87, 24, 48, and 72 hours after J1 (10 and 25 μM)
Method: as §6

[8] = tested on: JAZ, p53, and Bax protein levels; assay: Western blot of JAZ, p53 and Bax; format: cell-based; details: J1 25 μM
Method: as §6

U87MG glioma cells [9] = assay: Cell viability assay (trypan blue exclusion), U87MG; format: cell-based, human; set-up: viable U87 cells after JAZ siRNA plus J1: dose or concentration left out as unconfirmed
Method: as §2, §3
JAZ siRNA and control siRNA were purchased from Invitrogen. Cell transfection was performed by using METAFECTENE PRO (Biontex Laboratories GmbH, Germany) following the manufacturer's instructions. Briefly, 40 pmoles of JAZ (or control) siRNA was added into 30 μl serum-free medium then mixed with METAFECTENE PRO solution and incubated for 15-20 minutes at room temperature. The final siRNA-lipid complex solution was added into one 24-well-plate well. The complex-containing medium was replaced with serum-containing medium at 3 hours after the transfection to reduce the toxicity.
Cell viability was measured by first seeding tumor cells in 24-well dishes at a density of 10,000 cells per well. Two days later, cells were transduced with JAZ (or control) siRNA. Forty-eight hours after transduction, cells were collected by trypsinization followed by the trypan blue exclusion method (Yang et al., J Biol Chem 1999; 274:27399-406) and counted manually using a hemacytometer. This experiment was repeated six times for each cell line and each time in triplicate.

GL261 glioma cells = assay: Cytotoxicity on GL261; format: cell-based, mouse; details: increasing concentrations
Method: as §2

glioma = assay: In vitro glioma cytotoxic effects of J1 analogues (FIG. 18); format: cell-based

GI50 (glioma cell viability): 10 µM
SMILES: O=C(Nc1ccc(Cl)c(Cl)c1)Nc1ccccc1O [J1, N′-(2-hydroxy-phenyl)-N-(3,4-dichlorophenyl)Urea]
HSPA5 (GRP78, Bip) protein levels (U87 glioma cells; U87, 48 hours after J1 (65 μM)): consistently and significantly increased
PLOD2 protein level (U87 glioma cells; U87 glioma cells): significantly down-regulated
proteins up-regulated by J1 treatment (U87 glioma cells; U87 glioma cells): PBEF1, HSPA5, ANXA1, TPI1, ANXA5, HSPA9, TGM2, NPM1, and RPLP2
viable tumor cells, time and dose course (T98G glioma cells): time- and dose-dependent significant reduction of viable tumor cells
HSPA5 (GRP78, Bip) protein levels (U118 glioma cells; U118, 48 hours after J1 (65 μM)): consistently and significantly increased
proteins up-regulated by J1 treatment (U118 glioma cells; U118 glioma cells): HSPA5, PBEF1, HSPA1B, VIM, LMNA and HIST2H3PS2
cytotoxicity to colon cancer cells (colon cancer cells): cytotoxic
DNA laddering formation (U87MG glioma cells [1]): increased DNA laddering formation
cytotoxic effects on primary cultured hepatocytes [2]: minimal cytotoxic effects
ATF-4 protein levels [3]: time- and dose dependent increase
nuclear ATF-4 staining ([4]; 12 hours after J1 (25 μM)): significantly increased
CHOP staining ([4]; 24 hours after J1 (25 μM)): significantly increased
viable tumor cells (WT4 glioma cells): time-dependent significant reduction of viable tumor cells
cytotoxicity to leukemia cells (leukemia cells): cytotoxic
cytotoxic effects on HepG2 cells (HepG2 cells): significant cytotoxic effects
cytotoxic effects on DU145 cells [5]: strong dose and time-dependent cytotoxic effects
cytotoxicity to lung cancer cells (lung cancer cells): cytotoxic
cytotoxic effects on LNCAP cells [6]: strong dose and time-dependent cytotoxic effects
ATF-4 protein levels [7]: time- and dose dependent increase
JAZ, p53, and Bax protein levels [8]: did not alter
viable U87 cells after JAZ siRNA plus J1 (U87MG glioma cells [9]; 24 hours after JAZ siRNA transfection, J1 for additional 24 hours): did not lead to further reduction of viable U87 cells
viable U87 cells (U87MG glioma cells [9]; 48 hours after J1 treatment (10 μM)): reduction of viable U87 cells
viable tumor cells, time and dose course (U87MG glioma cells [9]; U87MG cells after J1 treatment): time- and dose-dependent significant reduction of viable tumor cells
cytotoxic effects on GL261 glioma cells (GL261 glioma cells): progressively greater cytotoxic effects

GI50 (glioma cell viability): 100 µM
SMILES: Cn1nnc2c(C(N)=O)ncn2c1=O [Temozolomide, reference compound]

SMILES: O=C(Nc1ccc(Cl)cc1)Nc1ccc(Cl)c(Cl)c1 [J1-h, 3-(4-chloro-phenyl)-1-(3,4-dichlorophenyl) Urea]
cytotoxic effects on primary cultured hepatocytes [2]: minimal cytotoxic effects
cytotoxic effects on HepG2 cells (HepG2 cells): significant cytotoxic effects
cytotoxic effects on DU145 cells [5]: strong dose and time-dependent cytotoxic effects
in vitro glioma cytotoxic effects (glioma): glioma cytotoxic effects
cytotoxic effects on LNCAP cells [6]: strong dose and time-dependent cytotoxic effects
cytotoxic effects on GL261 glioma cells (GL261 glioma cells): progressively greater cytotoxic effects
